# Where a name gives a salt, the structure may show the parent alone.
# Key:
# [1] = target: Cat L (UniProt P07711); assay: Cathepsin enzyme inhibition assay (fluorogenic peptide substrate Z-Val-Val-Arg-AMC), Cathepsin L; type: biochemical, human and mouse; conditions: enzyme 1 nM, substrate 20 μM, pH 6.5; read-out: CatL IC50
# Method in brief: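 Fluorogenic cleavage of Z-Val-Val-Arg-AMC (20 μM) by 1 nM Cat L was monitored at ex 360/em 465 nm for 20 min, the linear phase. The buffer was 100 mM potassium phosphate pH 6.5 with 5 mM EDTA and DTT. IC50 values were derived by standard methods, in μM.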
# [2] = target: Cathepsin S (UniProt P25774); assay: Cathepsin enzyme inhibition assay (fluorogenic peptide substrate Z-Val-Val-Arg-AMC), Cathepsin S; type: biochemical, human and mouse; conditions: enzyme 1 nM, substrate 20 μM, pH 6.5; read-out: CatS IC50
# Method in brief: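 Compounds were combined with 1 nM human or mouse enzyme, and substrate then started the reaction. The buffer was potassium phosphate (100 mM, pH 6.5) containing EDTA-Na 5 mM, Triton X-100 0.001% and […] 5 mM.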
SMILES,IC50 [1],IC50 [2]
"Cc1cc(N2C[C@H](S(=O)(=O)c3ccc(N4CC(F)(F)C4)cc3Cl)C[C@H]2C(=O)NC2(C#N)CC2)n(CCc2ccccc2)n1 [Example 483, (2S,4R)-4-[2-Chloro-4-(3,3-difluoro-azetidin-1-yl)-benzenesulfonyl]-1-(5-methyl-2-phenethyl-2H-pyrazol-3-yl)-pyrrolidine-2-carboxylic acid (1-cyano-cyclopropyl)-amide]",521 nM,1.34 nM
"COc1ccc(S(=O)(=O)[C@@H]2C[C@@H](C(=O)NC3(C#N)CC3)N(c3cc(C)nn3C3CCC3)C2)c(Cl)c1 [Example 375, (2S,4R)-4-(2-Chloro-4-methoxy-benzenesulfonyl)-1-(2-cyclobutyl-5-methyl-2H-pyrazol-3-yl)-pyrrolidine-2-carboxylic acid (1-cyano-cyclopropyl)-amide]",5370 nM,0.29 nM
"Cc1cc(N2C[C@H](S(=O)(=O)c3ccccc3C(F)(F)F)C[C@H]2C(=O)NC2(C#N)CC2)n(CC(F)(F)F)n1 [Example 269, (2S,4R)-1-[5-Methyl-2-(2,2,2-trifluoro-ethyl)-2H-pyrazol-3-yl]-4-(2-trifluoromethyl-benzenesulfonyl)-pyrrolidine-2-carboxylic acid (1-cyano-cyclopropyl)-amide]",75100 nM,1.6 nM
"CC1(C(=O)N2C[C@H](S(=O)(=O)c3ccc(Br)cc3C(F)(F)F)C[C@H]2C(=O)NC2(C#N)CC2)CC1 [Example 270, (2S,4R)-4-(4-Bromo-2-trifluoromethyl-benzenesulfonyl)-1-(1-methyl-cyclopropanecarbonyl)-pyrrolidine-2-carboxylic acid (1-cyano-cyclopropyl)-amide]",≥ 25000 nM,0.395 nM
"Cc1cc(N2C[C@H](S(=O)(=O)c3ccccc3Cl)C[C@H]2C(=O)NC2(C#N)CC2)n(C2CCS(=O)(=O)CC2)n1 [Example 479, (2S,4R)-4-[(2-Chlorophenyl)sulfonyl]-N-(1-cyanocyclopropyl)-1-[1-(1,1-dioxidotetrahydro-2H-thiopyran-4-yl)-3-methyl-1H-pyrazol-5-yl]-L-prolinamide]",3070 nM,3.24 nM
"COC(=O)c1ccc(C(=O)N2C[C@H](S(=O)(=O)c3ccccc3C(F)(F)F)C[C@H]2C(=O)NCC#N)cc1 [Example 137, 4-[(2S,4R)-2-(Cyanomethyl-carbamoyl)-4-(2-trifluoromethyl-benzenesulfonyl)-pyrrolidine-1-carbonyl]-benzoic acid methyl ester]",≥ 25000 nM,1 nM
"N#CC1(NC(=O)[C@@H]2C[C@@H](S(=O)(=O)c3ccc(OCC(F)(F)F)cc3Cl)CN2C(=O)C2(c3cccc4ccccc34)CC2)CC1 [Example 347, (2S,4R)-4-[2-Chloro-4-(2,2,2-trifluoro-ethoxy)-benzenesulfonyl]-1-(1-naphthalen-1-yl-cyclopropanecarbonyl)-pyrrolidine-2-carboxylic acid (1-cyano-cyclopropyl)-amide]",60 nM,0.855 nM
"CC(Oc1ccc(S(=O)(=O)[C@@H]2C[C@@H](C(=O)NC3(C#N)CC3)N(C(=O)OC(C)(C)C)C2)c(Cl)c1)C(F)(F)F (stereo partly drawn) [Example 122, (2S,4R)-4-[2-Chloro-4-(2,2,2-trifluoro-1-methyl-ethoxy)-benzenesulfonyl]-2-(1-cyano-cyclopropylcarbamoyl)-pyrrolidine-1-carboxylic acid tert.-butyl ester]",23800 nM,9.4 nM
"N#CC1(NC(=O)[C@@H]2C[C@@H](S(=O)(=O)c3ccc(OCC(F)(F)F)cc3Cl)CN2C(=O)C2(C(F)(F)F)CC2)CC1 [Example 172, (2S,4R)-4-[2-Chloro-4-(2,2,2-trifluoro-ethoxy)-benzenesulfonyl]-1-(1-trifluoromethyl-cyclopropanecarbonyl)-pyrrolidine-2-carboxylic acid (1-cyano-cyclopropyl)-amide]",8930 nM,0.4 nM
"CC(C)(C)C(=O)N1C[C@H](S(=O)(=O)c2ccc(OCC(F)(F)F)cc2C(F)(F)F)C[C@H]1C(=O)NC1(C#N)CC1 [Example 212, (2S,4R)-1-(2,2-Dimethyl-propionyl)-4-[4-(2,2,2-trifluoro-ethoxy)-2-trifluoromethyl-benzenesulfonyl]-pyrrolidine-2-carboxylic acid (1-cyano-cyclopropyl)-amide]",≥ 25000 nM,0.3 nM
"N#CC1(NC(=O)[C@@H]2C[C@@H](S(=O)(=O)c3c(Cl)cccc3Cl)CN2)CC1 [Example 16, (2S,4R)-4-(2,6-Dichloro-benzenesulfonyl)-pyrrolidine-2-carboxylic acid (1-cyano-cyclopropyl)-amide Hydrochloride]",≥ 25000 nM,13.2 nM
"COCCOc1ccc(S(=O)(=O)[C@@H]2CC(C(=O)NC3(C#N)CC3)N(C(=O)C3(c4ccc(Cl)nc4)CC3)C2)c(Cl)c1 (stereo partly drawn) [Example 378, (R)-4-[2-Chloro-4-(2-methoxy-ethoxy)-benzenesulfonyl]-1-[1-(6-chloro-pyridin-3-yl)-cyclopropanecarbonyl]-pyrrolidine-2-carboxylic acid (1-cyano-cyclopropyl)-amide]",200 nM,0.1 nM
"Cc1cc(N2C[C@H](S(=O)(=O)c3ccccc3C(F)(F)F)C[C@H]2C(=O)NC2(C#N)CC2)n(-c2ccc(Cl)cc2)n1 [Example 194, (2S,4R)-1-[2-(4-Chloro-phenyl)-5-methyl-2H-pyrazol-3-yl]-4-(2-trifluoromethyl-benzenesulfonyl)-pyrrolidine-2-carboxylic acid (1-cyano-cyclopropyl)-amide]",16600 nM,0.4 nM
"N#CC1(NC(=O)[C@@H]2C[C@@H](S(=O)(=O)c3ccccc3Cl)CN2C(=O)Oc2ccc(F)cc2)CC1 [Example 99, (2S,4R)-4-(2-Chloro-benzenesulfonyl)-2-(1-cyano-cyclopropylcarbamoyl)-pyrrolidine-1-carboxylic acid 4-fluoro-phenyl Ester]",≥ 25000 nM,2.6 nM
"N#CC1(NC(=O)[C@@H]2C[C@@H](S(=O)(=O)c3ccccc3C(F)(F)F)CN2C(=O)C2(c3ccc(Cl)cc3)CC2)CC1 [Example 202, (2S,4R)-1-[1-(4-Chloro-phenyl)-cyclopropanecarbonyl]-4-(2-trifluoromethyl-benzenesulfonyl)-pyrrolidine-2-carboxylic acid (1-cyano-cyclopropyl)-amide]",606 nM,0.1 nM
"Cc1cc(N2C[C@H](S(=O)(=O)c3ccc(F)cc3C(F)(F)F)C[C@H]2C(=O)NC2(C#N)CC2)n(-c2ccc(C(F)(F)F)cc2)n1 [Example 267, (2S,4R)-4-(4-Fluoro-2-trifluoromethyl-benzenesulfonyl)-1-[5-methyl-2-(4-trifluoromethyl-phenyl)-2H-pyrazol-3-yl]-pyrrolidine-2-carboxylic acid (1-cyano-cyclopropyl)-amide]",7810 nM,2.3 nM

# Other lines, results leading:
IC50 [1],IC50 [2],SMILES
≥ 25000 nM,3.2 nM,"N#CC1(NC(=O)[C@@H]2C[C@@H](S(=O)(=O)c3ccc(-n4ccnc4)cc3)CN2)CC1 [Example 14, (2S,4R)-4-(4-Imidazol-1-yl-benzenesulfonyl)-pyrrolidine-2-carboxylic acid (1-cyano-cyclopropyl)-amide Hydrochloride]"
≥ 25000 nM,2610 nM,"CC(C)C[C@]1(C(=O)NC2(C#N)CC2)C[C@H](S(C)(=O)=O)[C@@H](c2ccc(F)cc2)N1 [Example 123, (2R,4S,5R)-5-(4-Fluoro-phenyl)-2-isobutyl-4-methanesulfonyl-pyrrolidine-2-carboxylic acid (1-cyano-cyclopropyl)-amide]"
≥ 25000 nM,1.4 nM,"CS(=O)(=O)c1cccc(N2C[C@H](S(=O)(=O)c3ccccc3C(F)(F)F)C[C@H]2C(=O)NC2(C#N)CC2)c1 [Example 402, (2S,4R)-1-(3-Methanesulfonyl-phenyl)-4-(2-trifluoromethyl-benzenesulfonyl)-pyrrolidine-2-carboxylic acid (1-cyano-cyclopropyl)-amide]"
4820 nM,0.44 nM,"N#CC1(NC(=O)[C@@H]2C[C@@H](S(=O)(=O)c3ccccc3Cl)CN2S(=O)(=O)c2ccc(-c3cnco3)cc2)CC1 [Example 323, (2S,4R)-4-(2-Chloro-benzenesulfonyl)-1-(4-oxazol-5-yl-benzenesulfonyl)-pyrrolidine-2-carboxylic acid (1-cyano-cyclopropyl)-amide]"
50700 nM,0.885 nM,"Cc1cc(N2C[C@H](S(=O)(=O)c3ccccc3C(F)(F)F)C[C@H]2C(=O)NC2(C#N)CC2)n(C)n1 [Example 300, (2S,4R)-1-(2,5-Dimethyl-2H-pyrazol-3-yl)-4-(2-trifluoromethyl-benzenesulfonyl)-pyrrolidine-2-carboxylic acid (1-cyano-cyclopropyl)-amide]"
460 nM,0.365 nM,"N#CC1(NC(=O)[C@@H]2C[C@@H](S(=O)(=O)c3ccccc3Cl)CN2C(=O)C2(c3cccc(C(F)(F)F)c3)CC2)CC1 [Example 429, (2S,4R)-4-(2-chlorophenylsulfonyl)-N-(1-cyanocyclopropyl)-1-(1-(3-(trifluoromethyl)phenyl)cyclopropanecarbonyl)pyrrolidine-2-carboxamide]"
6030 nM,3.2 nM,"CN1CCC[C@H]1C(=O)N1C[C@H](S(=O)(=O)c2ccccc2Cl)C[C@H]1C(=O)NC1(C#N)CC1 [Example 81, (R)-4-(2-Chloro-benzenesulfonyl)-1-((S)-1-methyl-pyrrolidine-2-carbonyl)-pyrrolidine-2-carboxylic acid (1-cyano-cyclopropyl)-amide formiate]"
4720 nM,37.5 nM,"N#CC1(NC(=O)[C@@H]2C[C@@H](S(=O)(=O)c3ccccc3Cl)CN2CCc2ccccc2)CC1 [Example 87, (2S,4R)-4-(2-Chloro-benzenesulfonyl)-1-phenethyl-pyrrolidine-2-carboxylic acid (1-cyano-cyclopropyl)-amide]"

# Source: patent US8163793B2, “Proline derivatives” (Hoffman-La Roche Inc., priority 2009, dated 2012)
